{"source": "paper PMC6598440", "about": "(Clinical chemistry, 2016)", "key": {"[1]": {"conditions": "for degradation: whole dried blood on DMPK-C cards and VAMS devices, 4 °C, 30 days"}, "[2]": {"conditions": "cited from earlier work"}, "[3]": {"assay": "Comparison of plasma and whole blood hydroxyurea concentrations", "assay_type": "in vivo, patients with SCA"}}, "note": "Like-named read-outs stand apart in the source and are kept apart here.", "data": [{"molecule": "NC(=O)NO", "note": "[hydroxyurea, Hydroxyurea]", "values": [{"measurement": "% of the target concentration measured in freshly prepared samples", "setting": "[1]; DMPK-C cards, stored at 4 °C, 0.5 μg/mL, T = 7 days", "result": "90.17 ± 0.44", "unit": "%"}, {"measurement": "% of the target concentration measured in freshly prepared samples", "setting": "[1]; DMPK-C cards, stored at 4 °C, 0.5 μg/mL, T = 14 days", "result": "81.75 ± 3.85", "unit": "%"}, {"measurement": "% of the target concentration measured in freshly prepared samples", "setting": "[1]; DMPK-C cards, stored at 4 °C, 0.5 μg/mL, T = 30 days", "result": "75.85 ± 4.08", "unit": "%"}, {"measurement": "% of the target concentration measured in freshly prepared samples", "setting": "[1]; DMPK-C cards, stored at 4 °C, 60.0 μg/mL, T = 7 days", "result": "65.37 ± 1.07", "unit": "%"}, {"measurement": "% of the target concentration measured in freshly prepared samples", "setting": "[1]; DMPK-C cards, stored at 4 °C, 60.0 μg/mL, T = 14 days", "result": "54.13 ± 3.39", "unit": "%"}, {"measurement": "% of the target concentration measured in freshly prepared samples", "setting": "[1]; DMPK-C cards, stored at 4 °C, 60.0 μg/mL, T = 30 days", "result": "48.58 ± 0.23", "unit": "%"}, {"measurement": "% of the target concentration measured in freshly prepared samples", "setting": "[1]; DMPK-C cards, stored at −20 °C, 0.5 μg/mL, T = 7 days", "result": "95.08 ± 0.01", "unit": "%"}, {"measurement": "% of the target concentration measured in freshly prepared samples", "setting": "[1]; DMPK-C cards, stored at −20 °C, 0.5 μg/mL, T = 14 days", "result": "90.56 ± 13.29", "unit": "%"}, {"measurement": "% of the target concentration measured in freshly prepared samples", "setting": "[1]; DMPK-C cards, stored at −20 °C, 0.5 μg/mL, T = 30 days", "result": "96.07 ± 5.12", "unit": "%"}, {"measurement": "% of the target concentration measured in freshly prepared samples", "setting": "[1]; DMPK-C cards, stored at −20 °C, 60.0 μg/mL, T = 7 days", "result": "90.88 ± 1.83", "unit": "%"}, {"measurement": "% of the target concentration measured in freshly prepared samples", "setting": "[1]; DMPK-C cards, stored at −20 °C, 60.0 μg/mL, T = 14 days", "result": "92.99 ± 2.03", "unit": "%"}, {"measurement": "% of the target concentration measured in freshly prepared samples", "setting": "[1]; DMPK-C cards, stored at −20 °C, 60.0 μg/mL, T = 30 days", "result": "93.07 ± 3.11", "unit": "%"}, {"measurement": "% of the target concentration measured in freshly prepared samples", "setting": "[1]; DMPK-C cards, stored at −80 °C, 0.5 μg/mL, T = 7 days", "result": "102.14 ± 0.59", "unit": "%"}, {"measurement": "% of the target concentration measured in freshly prepared samples", "setting": "[1]; DMPK-C cards, stored at −80 °C, 0.5 μg/mL, T = 14 days", "result": "97.41 ± 14.36", "unit": "%"}, {"measurement": "% of the target concentration measured in freshly prepared samples", "setting": "[1]; DMPK-C cards, stored at −80 °C, 0.5 μg/mL, T = 30 days", "result": "99.98 ± 3.81", "unit": "%"}, {"measurement": "% of the target concentration measured in freshly prepared samples", "setting": "[1]; DMPK-C cards, stored at −80 °C, 60.0 μg/mL, T = 7 days", "result": "93.69 ± 3.64", "unit": "%"}, {"measurement": "% of the target concentration measured in freshly prepared samples", "setting": "[1]; DMPK-C cards, stored at −80 °C, 60.0 μg/mL, T = 14 days", "result": "94.22 ± 2.34", "unit": "%"}, {"measurement": "% of the target concentration measured in freshly prepared samples", "setting": "[1]; DMPK-C cards, stored at −80 °C, 60.0 μg/mL, T = 30 days", "result": "100.45 ± 1.09", "unit": "%"}, {"measurement": "% of the target concentration measured in freshly prepared samples", "setting": "[1]; VAMS devices, stored at 4 °C, 0.5 μg/mL, T = 7 days", "result": "87.90 ± 10.32", "unit": "%"}, {"measurement": "% of the target concentration measured in freshly prepared samples", "setting": "[1]; VAMS devices, stored at 4 °C, 0.5 μg/mL, T = 14 days", "result": "91.86 ± 7.97", "unit": "%"}, {"measurement": "% of the target concentration measured in freshly prepared samples", "setting": "[1]; VAMS devices, stored at 4 °C, 0.5 μg/mL, T = 30 days", "result": "75.11 ± 0.56", "unit": "%"}, {"measurement": "% of the target concentration measured in freshly prepared samples", "setting": "[1]; VAMS devices, stored at 4 °C, 60.0 μg/mL, T = 7 days", "result": "64.19 ± 1.28", "unit": "%"}, {"measurement": "% of the target concentration measured in freshly prepared samples", "setting": "[1]; VAMS devices, stored at 4 °C, 60.0 μg/mL, T = 14 days", "result": "51.98 ± 0.46", "unit": "%"}, {"measurement": "% of the target concentration measured in freshly prepared samples", "setting": "[1]; VAMS devices, stored at 4 °C, 60.0 μg/mL, T = 30 days", "result": "46.14 ± 0.98", "unit": "%"}, {"measurement": "% of the target concentration measured in freshly prepared samples", "setting": "[1]; VAMS devices, stored at −20 °C, 0.5 μg/mL, T = 7 days", "result": "106.52 ± 12.11", "unit": "%"}, {"measurement": "% of the target concentration measured in freshly prepared samples", "setting": "[1]; VAMS devices, stored at −20 °C, 0.5 μg/mL, T = 14 days", "result": "103.15 ± 2.56", "unit": "%"}, {"measurement": "% of the target concentration measured in freshly prepared samples", "setting": "[1]; VAMS devices, stored at −20 °C, 0.5 μg/mL, T = 30 days", "result": "95.37 ± 6.01", "unit": "%"}, {"measurement": "% of the target concentration measured in freshly prepared samples", "setting": "[1]; VAMS devices, stored at −20 °C, 60.0 μg/mL, T = 7 days", "result": "83.69 ± 1.28", "unit": "%"}, {"measurement": "% of the target concentration measured in freshly prepared samples", "setting": "[1]; VAMS devices, stored at −20 °C, 60.0 μg/mL, T = 14 days", "result": "82.55 ± 1.65", "unit": "%"}, {"measurement": "% of the target concentration measured in freshly prepared samples", "setting": "[1]; VAMS devices, stored at −20 °C, 60.0 μg/mL, T = 30 days", "result": "82.48 ± 0.78", "unit": "%"}, {"measurement": "% of the target concentration measured in freshly prepared samples", "setting": "[1]; VAMS devices, stored at −80 °C, 0.5 μg/mL, T = 7 days", "result": "101.92 ± 10.34", "unit": "%"}, {"measurement": "% of the target concentration measured in freshly prepared samples", "setting": "[1]; VAMS devices, stored at −80 °C, 0.5 μg/mL, T = 14 days", "result": "103.58 ± 3.20", "unit": "%"}, {"measurement": "% of the target concentration measured in freshly prepared samples", "setting": "[1]; VAMS devices, stored at −80 °C, 0.5 μg/mL, T = 30 days", "result": "106.00 ± 8.10", "unit": "%"}, {"measurement": "% of the target concentration measured in freshly prepared samples", "setting": "[1]; VAMS devices, stored at −80 °C, 60.0 μg/mL, T = 7 days", "result": "86.62 ± 1.86", "unit": "%"}, {"measurement": "% of the target concentration measured in freshly prepared samples", "setting": "[1]; VAMS devices, stored at −80 °C, 60.0 μg/mL, T = 14 days", "result": "90.21 ± 0.94", "unit": "%"}, {"measurement": "% of the target concentration measured in freshly prepared samples", "setting": "[1]; VAMS devices, stored at −80 °C, 60.0 μg/mL, T = 30 days", "result": "93.53 ± 0.68", "unit": "%"}, {"measurement": "degradation", "setting": "[1]; 0.5 μg/mL", "result": 25, "unit": "%"}, {"measurement": "degradation", "setting": "[1]; 60 μg/mL", "result": 52, "unit": "%"}, {"measurement": "typical peak serum or plasma hydroxyurea concentrations", "setting": "[2]; children with SCA, measured by colorimetry", "result": "15 to 45", "unit": "µg/mL"}, {"measurement": "elimination", "setting": "[2]", "result": "primarily by renal clearance"}, {"measurement": "half-life", "setting": "[2]", "result": "1 to 3", "unit": "h"}, {"measurement": "time drug is detectable after the daily dose", "setting": "[2]; most patients", "result": "6 to 8", "unit": "h"}, {"measurement": "time of peak serum concentrations after administration", "setting": "[2]; oral, once daily", "result": "15 to 60", "unit": "min"}, {"measurement": "oral bioavailability", "setting": "[2]; oral", "result": "excellent"}, {"measurement": "hydroxyurea concentrations in plasma and whole blood compared", "setting": "[3]; patients with SCA treated with hydroxyurea, venipuncture or finger-prick sampling", "result": "comparable"}, {"measurement": "plasma and whole blood hydroxyurea concentrations compared", "setting": "[3]; preliminary data using an HPLC method", "result": "equivalent"}]}]}
